Source: the supplement of paper PMC10307832

How the values were obtained:
Experiment in all cases: relative viability (nuclei count vs DMSO), 5 days (fraction); higher = more cells survive
201T = test system: 201T
In short: (§1)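 Medians of duplicate plates are given as relative viability. That measure is the nuclei count in treated wells divided by the count in vehicle wells. Counts were taken on 4× images of lung cancer cell lines in 1536-well plates, 5 days after pin-tool dosing the day after seeding with one drug alone or a fixed anchor-drug dose plus five library-drug doses (not always all listed) in √10 steps.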

NCI-H2023 = test system: NCI-H2023
In short: as §1

NCI-H441 = test system: NCI-H441
In short: as §1

NCI-H3122 = test system: NCI-H3122
In short: as §1

NCI-H1563 = test system: NCI-H1563
In short: as §1

NCI-H1793 = test system: NCI-H1793
In short: as §1

NCI-H322M = test system: NCI-H322M
In short: as §1

LOU-NH91 = test system: LOU-NH91
In short: as §1

NCI-H1734 = test system: NCI-H1734
In short: as §1

UMC-11 = test system: UMC-11
In short: as §1

COR-L23 = test system: COR-L23
In short: as §1

NCI-H520 = test system: NCI-H520
In short: as §1

NCI-H2347 = test system: NCI-H2347
In short: as §1

H3255 = test system: H3255
In short: as §1

NCI-H2405 = test system: NCI-H2405
In short: as §1

NCI-H647 = test system: NCI-H647
In short: as §1

NCI-H2170 = test system: NCI-H2170
In short: as §1

PC-14 = test system: PC-14
In short: as §1

EPLC-272H = test system: EPLC-272H
In short: as §1

HCC-15 = test system: HCC-15
In short: as §1

With `Cc1sc2c(c1C)C(c1ccc(Cl)cc1)=N[C@@H](CC(=O)OC(C)(C)C)c1nnc(C)n1-2` [JQ1] + Cc1nc(NC(=O)N2CCC[C@H]2C(N)=O)sc1-c1ccnc(C(C)(C)C(F)(F)F)c1 [Alpelisib] (partner 2 µM) the relative viability (201T; first compound 0.04 µM) was 1.02, the relative viability (201T; first compound 0.1265 µM) was 0.926 and the relative viability (201T; first compound 0.4 µM) was 0.939. The relative viability (201T; first compound 1.265 µM) was 0.715, the relative viability (201T; first compound 4 µM) was 0.567 and the relative viability (NCI-H2023; first compound 0.04 µM) was 0.544. The relative viability (NCI-H2023; first compound 0.1265 µM) was 0.651, the relative viability (NCI-H2023; first compound 0.4 µM) was 0.531 and the relative viability (NCI-H2023; first compound 1.265 µM) was 0.213. The relative viability (NCI-H2023; first compound 4 µM) was 0.217, the relative viability (NCI-H441; first compound 0.04 µM) was 0.772 and the relative viability (NCI-H441; first compound 0.1265 µM) was 0.958. For the same compound, the relative viability (NCI-H441; first compound 0.4 µM) was 0.692, the relative viability (NCI-H441; first compound 1.265 µM) was 0.294 and the relative viability (NCI-H441; first compound 4 µM) was 0.444. For the same compound, the relative viability (NCI-H3122; first compound 0.04 µM) was 0.833, the relative viability (NCI-H3122; first compound 0.1265 µM) was 0.771 and the relative viability (NCI-H3122; first compound 0.4 µM) was 0.963. The relative viability (NCI-H3122; first compound 1.265 µM) was 0.661, the relative viability (NCI-H3122; first compound 4 µM) was 0.663 and the relative viability (NCI-H1563; first compound 0.04 µM) was 0.846. For the same compound, the relative viability (NCI-H1563; first compound 0.1265 µM) was 0.854, the relative viability (NCI-H1563; first compound 0.4 µM) was 0.932 and the relative viability (NCI-H1563; first compound 1.265 µM) was 0.573. The relative viability (NCI-H1563; first compound 4 µM) was 0.613, the relative viability (NCI-H1793; first compound 0.04 µM) was 0.653 and the relative viability (NCI-H1793; first compound 0.1265 µM) was 0.781. The relative viability (NCI-H1793; first compound 0.4 µM) was 0.558, the relative viability (NCI-H1793; first compound 1.265 µM) was 0.633 and the relative viability (NCI-H1793; first compound 4 µM) was 0.696. It also gave a relative viability (NCI-H322M; first compound 0.04 µM) of 0.752, a relative viability (NCI-H322M; first compound 0.1265 µM) of 0.77 and a relative viability (NCI-H322M; first compound 0.4 µM) of 0.862. It also gave a relative viability (NCI-H322M; first compound 1.265 µM) of 0.68, a relative viability (NCI-H322M; first compound 4 µM) of 0.587 and a relative viability (LOU-NH91; first compound 0.04 µM) of 0.683. For the same compound, the relative viability (LOU-NH91; first compound 0.1265 µM) was 0.664, the relative viability (LOU-NH91; first compound 0.4 µM) was 0.458 and the relative viability (LOU-NH91; first compound 1.265 µM) was 0.491. It also gave a relative viability (LOU-NH91; first compound 4 µM) of 0.473, a relative viability (NCI-H1734; first compound 0.04 µM) of 0.709 and a relative viability (NCI-H1734; first compound 0.1265 µM) of 0.645. The relative viability (NCI-H1734; first compound 0.4 µM) was 0.637, the relative viability (NCI-H1734; first compound 1.265 µM) was 0.544 and the relative viability (NCI-H1734; first compound 4 µM) was 0.421. It also gave a relative viability (UMC-11; first compound 0.04 µM) of 0.941, a relative viability (UMC-11; first compound 0.1265 µM) of 0.997 and a relative viability (UMC-11; first compound 0.4 µM) of 0.26. It also gave a relative viability (UMC-11; first compound 1.265 µM) of 0.197, a relative viability (UMC-11; first compound 4 µM) of 0.158 and a relative viability (COR-L23; first compound 0.04 µM) of 0.814. It also gave a relative viability (COR-L23; first compound 0.1265 µM) of 0.708, a relative viability (COR-L23; first compound 0.4 µM) of 0.754 and a relative viability (COR-L23; first compound 1.265 µM) of 0.36. For the same compound, the relative viability (COR-L23; first compound 4 µM) was 0.21, the relative viability (NCI-H520; first compound 0.04 µM) was 0.798 and the relative viability (NCI-H520; first compound 0.1265 µM) was 0.934. For the same compound, the relative viability (NCI-H520; first compound 0.4 µM) was 0.667, the relative viability (NCI-H520; first compound 1.265 µM) was 0.38 and the relative viability (NCI-H520; first compound 4 µM) was 0.268. For the same compound, the relative viability (NCI-H2347; first compound 0.04 µM) was 0.982, the relative viability (NCI-H2347; first compound 0.1265 µM) was 0.8 and the relative viability (NCI-H2347; first compound 0.4 µM) was 0.848. For the same compound, the relative viability (NCI-H2347; first compound 1.265 µM) was 0.646, the relative viability (NCI-H2347; first compound 4 µM) was 0.477 and the relative viability (H3255; first compound 0.04 µM) was 0.691. For the same compound, the relative viability (H3255; first compound 0.1265 µM) was 0.62, the relative viability (H3255; first compound 0.4 µM) was 0.619 and the relative viability (H3255; first compound 1.265 µM) was 0.34. The relative viability (H3255; first compound 4 µM) was 0.296, the relative viability (NCI-H2405; first compound 0.04 µM) was 0.824 and the relative viability (NCI-H2405; first compound 0.4 µM) was 0.74. The relative viability (NCI-H2405; first compound 1.265 µM) was 0.436, the relative viability (NCI-H2405; first compound 4 µM) was 0.256 and the relative viability (NCI-H647; first compound 0.04 µM) was 0.998. The relative viability (NCI-H647; first compound 0.1265 µM) was 0.596, the relative viability (NCI-H647; first compound 0.4 µM) was 0.447 and the relative viability (NCI-H647; first compound 1.265 µM) was 0.156. For the same compound, the relative viability (NCI-H647; first compound 4 µM) was 0.132, the relative viability (NCI-H2170; first compound 0.04 µM) was 0.811 and the relative viability (NCI-H2170; first compound 0.1265 µM) was 0.801. It also gave a relative viability (NCI-H2170; first compound 0.4 µM) of 0.689, a relative viability (NCI-H2170; first compound 1.265 µM) of 0.403 and a relative viability (NCI-H2170; first compound 4 µM) of 0.34. For the same compound, the relative viability (PC-14; first compound 0.04 µM) was 0.974, the relative viability (PC-14; first compound 0.1265 µM) was 0.921 and the relative viability (PC-14; first compound 0.4 µM) was 0.885. For the same compound, the relative viability (PC-14; first compound 1.265 µM) was 0.59, the relative viability (PC-14; first compound 4 µM) was 0.351 and the relative viability (EPLC-272H; first compound 0.04 µM) was 0.897. It also gave a relative viability (EPLC-272H; first compound 0.1265 µM) of 0.904, a relative viability (EPLC-272H; first compound 0.4 µM) of 0.889 and a relative viability (EPLC-272H; first compound 1.265 µM) of 0.423. The relative viability (EPLC-272H; first compound 4 µM) was 0.376, the relative viability (HCC-15; first compound 0.04 µM) was 0.806 and the relative viability (HCC-15; first compound 0.4 µM) was 0.768. For the same compound, the relative viability (HCC-15; first compound 1.265 µM) was 0.417 and the relative viability (HCC-15; first compound 4 µM) was 0.449.
